pIC50: −log10 of the molar value.
How the values were obtained:
[1] = test system: SH-SY5Y human neuroblastoma cells; test: LDH and MTT cell viability assays; type: cell-based; conditions: 5 h; for concentration near and above which cell viability decreased: compared to DMSO or untreated controls; for cell toxicity: range of concentrations studied (0.001 µM to 1 mM)
Protocol: BK50118-B and BK50118-C (Figure 2C,D) decreased cell viability near and above 100 μM compared to DMSO or untreated controls. CL3-499 (Figure 2G) decreased cell viability near and above 1 mM compared to DMSO or untreated controls.
(§1) SH-SY5Y cells were transiently transfected for 24 h with human wild-type α-synuclein using Fugene HD transfection reagent (Promega, E2311, Madison, WI, USA) according to manufacturer’s protocol. Cells were treated with 1 mM, 0.1 mM, 0.01 mM, 1 µM, 0.1 µM, 0.01 µM and 0.001 µM of each novel compounds (BK50118-A, BK50118-B, BK50118-C, CL3-499, CL3-512 and CL3-514) dissolved in DMSO for 5 h. Cells were then harvested on ice by removing culture medium and adding 0.2 mL 1x sodium-tris, EDTA, NP-40 (STEN) buffer (50 mM Tris (pH 7.6), 150 mM NaCl, 2 mM EDTA, 0.2 % NP-40, 0.2 % with Halt protease and phosphatase inhibitor solution (ThermoFisher, 78446). Cells were detached with a cell scraper and collected into centrifuge tubes and incubated at 4 °C for 30 min with agitation. Samples were stored at −80 °C and used for ELISA analyses. For cell viability assay, SHSY-5Y cells stably expressing human wild-type alpha-synuclein were treated with 1 mM, 0.1 mM, 0.01 mM, 1 µM, 0.1 µM, 0.01 µM and 0.001 µM of each novel compound (BK50118-A, BK50118-B, BK50118-C, CL3-499, CL3-512 and CL3-514) dissolved in DMSO for 5 h. Cell viability was determined via lactate dehydrogenase assay on culture media (Thermofisher, 88954) and MTT assay on plated cells (Thermofisher, V13154).

USP13 [2] = target: T1, USP13 (Homo sapiens, UniProt Q92995); test: USP13 activity via functional ELISA in alpha-synuclein transfected SH-SY5Y cells; type: cell-based; conditions: SH-SY5Y cells transfected with human alpha-synuclein, 5 h, read-out: Estimated IC50 to USP13
T1 construct: ELISA for USP13 (MyBioSource, Cat # MBS9335287, San Diego, CA, USA); endogenous in cells; host or cells: human SH-SY5Y neuroblastoma cells transfected with human wild-type alpha-synuclein
T1 sequence (Q92995 1-863): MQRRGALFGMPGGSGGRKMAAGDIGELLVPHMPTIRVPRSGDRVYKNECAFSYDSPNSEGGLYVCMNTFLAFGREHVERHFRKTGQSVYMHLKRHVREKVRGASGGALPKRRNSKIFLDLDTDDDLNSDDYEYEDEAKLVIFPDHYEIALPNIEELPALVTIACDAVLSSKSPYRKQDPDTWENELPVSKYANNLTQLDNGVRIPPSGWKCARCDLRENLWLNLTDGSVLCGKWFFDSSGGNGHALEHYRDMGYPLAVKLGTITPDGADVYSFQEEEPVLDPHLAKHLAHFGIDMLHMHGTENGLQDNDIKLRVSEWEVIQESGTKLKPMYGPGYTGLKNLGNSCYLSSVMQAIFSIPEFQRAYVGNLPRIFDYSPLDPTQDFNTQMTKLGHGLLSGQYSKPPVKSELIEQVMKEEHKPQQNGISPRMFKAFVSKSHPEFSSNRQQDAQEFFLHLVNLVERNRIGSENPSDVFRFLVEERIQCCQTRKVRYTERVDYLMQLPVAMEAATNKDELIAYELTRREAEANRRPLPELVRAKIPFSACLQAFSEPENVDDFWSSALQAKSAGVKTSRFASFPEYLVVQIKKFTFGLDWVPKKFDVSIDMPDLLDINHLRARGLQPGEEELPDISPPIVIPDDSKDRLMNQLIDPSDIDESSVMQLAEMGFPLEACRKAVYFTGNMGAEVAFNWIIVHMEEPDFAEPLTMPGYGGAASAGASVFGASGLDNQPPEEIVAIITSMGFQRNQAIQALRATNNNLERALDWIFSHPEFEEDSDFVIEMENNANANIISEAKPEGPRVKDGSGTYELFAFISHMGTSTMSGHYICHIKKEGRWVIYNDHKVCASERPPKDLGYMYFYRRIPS
Protocol: Stably transfected human neuroblastoma SH-SY5Y cells with human wild-type alpha-synuclein were treated with 1 mM, 100 µM, 10 µM, 1 µM, 0.1 µM, 0.01 µM and 0.001 µM of each of BK50118-A, BK50118-B, BK50118-C, CL3-499, CL3-512 and CL3-514 dissolved in an equivalent volume of DMSO for 5 h. […] The other 5 compounds were also able to lower alpha-synuclein levels but with less potency (Figure 3H,I,K–M).
as §1
The ELISA for USP13 (MyBioSource, Cat # MBS9335287, San Diego, CA, USA), Human alpha-synuclein (Biolegend, Cat # 844101, San Diego, CA, USA) and specific p-Tau ser396 (Invitrogen, KHB7031, Waltham, MA, USA) were performed on cell or brain tissue extracts as described above according to manufacturers’ protocol.
All statistical analyses were performed using GraphPad Prism version 5.0 (GraphPad software, Inc, San Diego, CA, USA). Two-tailed student’s t-test was used in comparison of means of two groups. Ordinary one-way analysis of variance (ANOVA) followed by Newman–Keuls or Dunnett comparison post hoc tests were used in comparison of means of multiple groups. Asterisks denote actual p-value significances (* < 0.05, ** < 0.01, *** < 0.001 and **** < 0.0001), and N is the number of animals or the number of independent experiments (cell culture) per group. Unless otherwise indicated, data are expressed as Mean ± SD. IC50 to USP13 levels was also estimated using GraphPad Prism version 5.0 (GraphPad software, Inc, San Diego, CA, USA).

USP13 [3] = test system: USP13; parameters: method as in PMID 21962518; conditions: cited from earlier work
USP10 = test system: USP10; parameters: method as in PMID 21962518; conditions: cited from earlier work
[4] = parameters: method as in PMID 21962518; conditions: cited from earlier work

| Compound | pIC50 (USP13 [2]) | concentration near and above which cell viability decreased [1] [µM] | cell toxicity [1] | pIC50 (USP13 [3]) | pIC50 (USP10) | blood-brain barrier (BBB) penetration [4] |
| --- | --- | --- | --- | --- | --- | --- |
| c1ccc(Nc2ccnc3ccsc23)cc1 [BK50118-A, N-phenylthieno[3,2-b]pyridin-7-amine] | 9.96 | ≥ 0.1 | – | – | – | – |
| Fc1ccc2nccc(Nc3ccccc3)c2c1 [BK50118-B, 6-fluoro-N-phenylquinolin-4-amine] | 8.67 | ≥ 100 | – | – | – | – |
| Fc1ccc2nccc(NCc3ccccc3)c2c1 [CL3-499, N-benzyl-6-fluoroquinolin-4-amine] | 9.54 | ≥ 1000 | – | – | – | – |
| Fc1ccc(CNc2ncnc3ccc(F)cc23)cc1 [Spautin-1] | – | – | – | 6.15 to 6.22 | 6.15 to 6.22 | does not cross the blood–brain barrier (BBB) |

Further lines, with some results ahead:

| pIC50 (USP13 [2]) | Compound | concentration near and above which cell viability decreased [1] [µM] | cell toxicity [1] | pIC50 (USP13 [3]) | pIC50 (USP10) | blood-brain barrier (BBB) penetration [4] |
| --- | --- | --- | --- | --- | --- | --- |
| 9.57 | COC(=O)[C@H](Cc1ccccc1)Nc1c([N+](=O)[O-])c(=O)oc2ccccc12 [CL3-512, (S)-methyl (3-nitro-2-oxo-2H-chromen-4-yl)-phenylalaninate] | – | did not show cell toxicity | – | – | – |
| 9.21 | COC(=O)[C@H](Cc1ccc(O)cc1)Nc1c([N+](=O)[O-])c(=O)oc2ccccc12 [CL3-514, (S)-methyl (3-nitro-2-oxo-2H-chromen-4-yl)-tyrosinate] | – | did not show cell toxicity | – | – | – |

Source: PMC8467576, “Novel Ubiquitin Specific Protease-13 Inhibitors Alleviate Neurodegenerative Pathology” (Metabolites, 2021)
